The values below come from patent publication EP0863891B1, “(METHYLSULFONYL)PHENYL-2-(5H)-FURANONES AS COX-2 INHIBITORS” (Merck Frosst Canada & Co., priority 1995, dated 1997).

Where two headings read alike, the source gives them in different places.

For one assay, the system named is Male Sprague-Dawley rats. The assay is described as follows: Rat paw edema assay (carrageenan-induced). In kind it is in vivo. The following applies: po, 3 hr; for ED50: Rattus norvegicus. As for the experimental part: Male Sprague-Dawley rats (150-200 g) are fasted overnight and are given, po, either vehicle (1% methocel or 5% Tween 80) or a test compound. One hr later, a line is drawn using a permanent marker at the level above the ankle in one hind paw to define the area of the paw to be monitored. The paw volume (V0) is measured using a plethysmometer (Ugo-Basile, Italy) based on the principle of water displacement. The animals are then injected subplantarly with 50 µl of 1% carrageenan solution in saline (PMC Corp, Maine) into the paw using an insulin syringe with a 25-gauge needle (i.e. 500 µg carrageenan per paw). Three hr later, the paw volume (V3) is measured and the increases in paw volume (V3 - VO) are calculated. The animals are sacrificed by CO2 asphyxiation and the absence or presence of stomach lesions scored. Data is compared with the vehicle-control values and percent inhibition calculated. All treatment groups are coded to eliminate observer bias.

Assay [1] deals with T1, COX-2 (Homo sapiens, UniProt P35354).
T1 sequence (P35354 18-604): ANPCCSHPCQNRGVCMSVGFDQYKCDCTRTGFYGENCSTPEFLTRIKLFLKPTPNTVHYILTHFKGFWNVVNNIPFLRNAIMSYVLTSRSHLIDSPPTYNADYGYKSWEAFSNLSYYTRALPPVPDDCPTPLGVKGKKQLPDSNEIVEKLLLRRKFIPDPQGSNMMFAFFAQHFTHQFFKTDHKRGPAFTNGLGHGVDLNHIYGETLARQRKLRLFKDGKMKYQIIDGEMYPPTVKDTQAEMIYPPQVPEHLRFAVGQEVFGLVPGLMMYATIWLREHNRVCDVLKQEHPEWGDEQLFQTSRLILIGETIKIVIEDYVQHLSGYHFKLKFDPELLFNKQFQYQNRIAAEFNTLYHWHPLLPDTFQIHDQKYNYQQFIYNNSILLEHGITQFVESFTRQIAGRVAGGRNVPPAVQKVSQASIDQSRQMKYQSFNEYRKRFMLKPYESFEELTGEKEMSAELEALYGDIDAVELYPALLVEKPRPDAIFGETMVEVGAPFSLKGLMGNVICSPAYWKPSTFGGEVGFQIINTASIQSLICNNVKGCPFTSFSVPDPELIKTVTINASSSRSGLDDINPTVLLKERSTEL
The assay is described as follows: Human whole blood assay, COX-2 (LPS-induced PGE2 production). Set-up: endogenous in cells; host or cells: fresh heparinized human whole blood from volunteers, induced with LPS. To be noted: human whole blood, LPS, 24 hours. In kind it is cell-based.

Assay [2] addresses T1, COX-2. As to the kind of experiment: Assay of the activity of purified human COX-2 (TMPD chromogenic assay). In kind it is biochemical. Also noted: made in house; host or cells: Sf9 cells.
Another assay deals with T2, CHO [hCOX-2] (Homo sapiens, UniProt P35354).
T2 construct: expressed in transfected cells; host or cells: CHO cells, stably transfected with pCDNAIII
T2 sequence (P35354 18-604): T1 sequence (P35354 18-604)
As to the kind of experiment: Whole cell assay for COX-2 using CHO transfected cell line (PGE2 synthesis). In kind it is cell-based. As for the experimental part: (§1) Chinese hamster ovary (CHO) cell lines which have been stably transfected with an eukaryotic expression vector pCDNAIII containing either the human COX-1 or COX-2 cDNA's are used for the assay. These cell lines are referred to as CHO [hCOX-1] and CHO [hCOX-2], respectively. […] Cells (0.3 x 10^6 cells in 200 µl) are preincubated with 3 µl of the test drug or DMSO vehicle for 15 min at 37°C. […] Cells are then challenged in the presence or absence of drug with the AA/HBSS solution to yield a final concentration of 0.5 µM AA in the CHO[hCOX-1] assay and a final concentration of 10 µM AA in the CHO[hCOX-2] assay. […] The samples are centrifuged at 300 x g at 4°C for 10 min, and an aliquot of the clarified supernatant is appropriately diluted for the determination of PGE2 levels using an enzyme-linked immunoassay for PGE2 (Correlate PGE2 enzyme immunoassay kit, Assay Designs, Inc.). Cyclooxygenase activity in the absence of test compounds is determined as the difference in PGE2 levels of cells challenged with arachidonic acid versus the PGE2 levels in cells mock-challenged with ethanol vehicle. Inhibition of PGE2 synthesis by test compounds is calculated as a percentage of the activity in the presence of drug versus the activity in the positive control samples.
(§2) In the assay, inhibition is determined by measuring the amount of prostaglandin E2 (PGE2) synthesized in the presence of arachidonic acid, cyclooxygenase-1 or cyclooxygenase-2 and a putative inhibitor.

Another assay deals with T3, CHO [hCOX-1] (Homo sapiens, UniProt P23219).
T3 construct: expressed in transfected cells; host or cells: CHO cells, stably transfected with pCDNAIII
T3 sequence (P23219 24-599): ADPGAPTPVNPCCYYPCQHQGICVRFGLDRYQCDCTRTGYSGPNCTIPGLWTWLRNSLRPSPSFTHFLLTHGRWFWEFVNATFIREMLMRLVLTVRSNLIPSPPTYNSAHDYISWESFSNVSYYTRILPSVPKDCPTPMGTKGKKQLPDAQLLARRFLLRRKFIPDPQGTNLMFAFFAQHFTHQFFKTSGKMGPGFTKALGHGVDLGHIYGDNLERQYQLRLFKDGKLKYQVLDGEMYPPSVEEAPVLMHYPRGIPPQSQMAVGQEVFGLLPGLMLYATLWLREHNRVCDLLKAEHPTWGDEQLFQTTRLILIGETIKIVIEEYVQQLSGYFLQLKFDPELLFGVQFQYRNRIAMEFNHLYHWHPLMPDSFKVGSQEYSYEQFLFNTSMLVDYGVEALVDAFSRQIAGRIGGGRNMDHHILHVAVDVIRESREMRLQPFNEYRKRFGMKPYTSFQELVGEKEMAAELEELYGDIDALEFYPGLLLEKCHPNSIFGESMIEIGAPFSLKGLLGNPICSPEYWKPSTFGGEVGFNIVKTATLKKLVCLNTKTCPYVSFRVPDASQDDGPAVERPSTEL
As to the kind of experiment: Whole cell assay for COX-1 using CHO transfected cell line (PGE2 synthesis). The following applies: CHO[hCOX-1] cells, 0.5 µM AA. In kind it is cell-based. The method, then:
as §1, with “respectively. […] Drugs to be tested are dissolved in DMSO to 66.7-fold the highest test drug concentration.” for “respectively.”
as §2

Setting [3] is: Table IV, read-out: COX-2(IC50, µM) HWB.
Where [4] appears, read: Table IV, purified enzyme, TMPD oxidation, read-out: COX-2(IC50, µM) TMPD.
Setting [5] is: Table IV, CHO[hCOX-2] cells, 10 µM AA, read-out: COX-2(IC50, µM) CHO.
The mark [6] stands for this setting: Table IV, read-out: COX-1 (IC50, µM) CHO.
[7] abbreviates: Table III, read-out: COX-2 (IC50) HWB.
Setting [8] is: Table III, purified enzyme, TMPD oxidation, read-out: COX-2 (IC50) TMPD.
Setting [9] is: Table III, read-out: COX-1 (IC50) CHO.
The mark [10] stands for this setting: Table III, CHO[hCOX-2] cells, 10 µM AA, read-out: COX-2 (IC50) CHO.

For `C[C@]1(CC(F)(F)F)OC(=O)C(Oc2ccc(Br)cn2)=C1c1ccc(S(C)(=O)=O)cc1` [Example 201, (5R)-3-(5-bromo-2-pyridyloxy)-4-(4-methylsulfonylphenyl)-5-methyl-5-(2,2,2-trifluoroethyl)-5H-furan-2-one], the ED50 (in general, the midpoint of the dose-response relation) with Male Sprague-Dawley rats (Table IV) was found to be 2.7 mg/kg. Moreover, the 50% inhibitory concentration (IC50) (in general, the point on the concentration scale where inhibition reaches its midpoint) on COX-2 [1] (setting [3]) was determined as 0.18 µM; at COX-2 [2] (setting [4]), 14 µM; on CHO [hCOX-2] (setting [5]), 0.07 µM.
Turning to `CC1(C)OC(=O)C(Oc2ccncc2)=C1c1ccc(S(C)(=O)=O)cc1` [Example 37, 5,5-dimethyl-4-(4-methylsulfonyl-phenyl)-3-(pyridin-4-yloxy)-5H-furan-2-one], the concentration for half-maximal inhibition (IC50) at CHO [hCOX-1] (setting [6]) was over 50 µM.
`CC[C@@]1(C)OC(=O)C(Oc2ccc(Cl)cn2)=C1c1ccc(S(C)(=O)=O)cc1` [Example 169, (5R)-3-(5-chloro-2-pyridyloxy)-5-ethyl-5-methyl-4-(4-methylsulfonyl) phenyl-5H-furan-2-one] came in with a median effective dose (ED50) in the assay on Male Sprague-Dawley rats (Table IV) of 4.6 mg/kg. The 50% inhibitory concentration (IC50) at COX-2 [1] (setting [3]) was under 0.41 µM; on COX-2 [2] (setting [4]) it was 4 µM; on CHO [hCOX-2] (setting [5]), 0.05 µM.
On to `CC1(C)OC(=O)C(Oc2cccnc2)=C1c1ccc(S(C)(=O)=O)cc1` [Example 38, 5,5-dimethyl-4-(4-methylsulfonyl-phenyl)-3-(pyridin-3-yloxy)-5H-furan-2-one], for which the IC50 against COX-2 [2] is 41 µM; on CHO [hCOX-1] (setting [6]), over 50 µM.
Compound `CC1(C)OC(=O)C(Oc2ncccc2F)=C1c1ccc(S(C)(=O)=O)cc1` [Example 167, 3-(3-Fluoro-2-pyridyloxy)-5,5-dimethyl-4-(4-methylsulfonyl) phenyl-5H-furan-2-one] gave a 50% effective dose (ED50) in the assay with Male Sprague-Dawley rats (Table IV) of 6.4 mg/kg. For the same compound, the half-inhibitory concentration (IC50) at COX-2 [1] (setting [3]) was found to be 0.21 µM; on CHO [hCOX-2] (setting [5]), 0.11 µM.
Take `Cc1cccc(OC2=C(c3ccc(S(C)(=O)=O)cc3)C(C)(C)OC2=O)n1` [Example 27, 3-(6-Methyl-2-pyridyloxy)-5,5-dimethyl-4-(4-(methylsulfonyl)phenyl)-5H-furan-2-one]: the IC50 on COX-2 [1] (setting [7]) is 2.3 µM; on COX-2 [2] (setting [8]) it was 14 µM; on CHO [hCOX-1] (setting [9]) it was over 100 µM; at CHO [hCOX-2] (setting [10]) it was 0.41 µM.
On to `CC1(C)OC(=O)C(OC2CCCCC2)=C1c1ccc(S(C)(=O)=O)cc1` [Example 14, 3-Cyclohexyloxy-5,5-dimethyl-4-(4-(methylsulfonyl)phenyl)-5H-furan-2-one], for which the concentration for half-maximal inhibition (IC50) at CHO [hCOX-1] (setting [9]) is over 50 µM.
In the assay on Male Sprague-Dawley rats (Table IV), `Cc1cc(OC2=C(c3ccc(S(C)(=O)=O)cc3)C(C)(C)OC2=O)ncc1F` [Example 122, 3-(5-Fluoro-4-methyl-2-pyridyloxy)-5,5-dimethyl-4-(4-methylsulfonyl)-phenyl-5H-furan-2-one] yielded an ED50 of 1.2 mg/kg. For the same compound, the 50% inhibitory concentration (IC50) on COX-2 [1] (setting [3]) came out at 0.38 µM; on COX-2 [2] (setting [4]) it was 4.6 µM; on CHO [hCOX-2] (setting [5]) it was 0.15 µM.
As to `CS(=O)(=O)c1ccc(C2=C(Oc3ccccc3)C(=O)OC23CCCC3)cc1` [Example 20, 4-(4-(Methylsulfonyl)phenyl)-3-phenoxy-1-oxaspiro[4.4]non-3-en-2-one], the IC50 at COX-2 [1] (setting [7]) came out at 0.23 µM; at COX-2 [2] (setting [8]), 0.44 µM; at CHO [hCOX-1] (setting [9]) it was 4.68 µM; on CHO [hCOX-2] (setting [10]), 0.03 µM.
As for `C[C@]1(CC(F)(F)F)OC(=O)C(Oc2ccc(F)cc2)=C1c1ccc(S(C)(=O)=O)cc1` [Example 166, (5R)-3-(4-fluorophenoxy)-5-methyl-4-(4-methylsulfonyl)phenyl-5-(2,2,2-trifluoroethyl)-5H-furan-2-one], the “Rat Paw Edema ED50(mg/kg)” value in the assay with Male Sprague-Dawley rats (Table IV) was 4.9 mg/kg. In addition, the 50% inhibitory concentration (IC50) was found to be 0.28 µM on COX-2 [1] (setting [3]), 6.5 µM on COX-2 [2] (setting [4]) and 0.05 µM on CHO [hCOX-2] (setting [5]).
Take `CC1(C)OC(=O)C(Oc2ccccn2)=C1c1ccc(S(C)(=O)=O)cc1` [Example 26, 3-(2-pyridyloxy)-5,5-dimethyl-4-(4-(methylsulfonyl)phenyl)-5H-furan-2-one]: the IC50 at CHO [hCOX-1] (setting [9]) is over 100 µM.
`CC[C@@]1(C)OC(=O)C(OC(C)C)=C1c1ccc(S(C)(=O)=O)cc1` [Example 140, 5(R)-5-ethyl-5-methyl-4-(4-(methylsulfonyl)phenyl)-3-(2-propoxy)-5H-furan-2-one] came in with an ED50 in the assay on Male Sprague-Dawley rats (Table IV) of 4.6 mg/kg. The values for the IC50 at COX-2 [1] (setting [3]) and on CHO [hCOX-2] (setting [5]) were 0.54 µM and 0.12 µM, respectively.
Consider `CC1(C)OC(=O)C(Oc2cc(F)cc(F)c2)=C1c1ccc(S(C)(=O)=O)cc1` [Example 3, 3-(3,5-Difluorophenoxy)-5,5-dimethyl-4-(4-(methylsulfonyl)phenyl)-5H-furan-2-one], for which the 50% inhibitory concentration (IC50) at CHO [hCOX-1] (setting [9]) was over 50 µM.
As to `CC[C@@]1(C)OC(=O)C(Oc2ccc(Cl)cc2)=C1c1ccc(S(C)(=O)=O)cc1` [Example 118, (5R)-3-(4-Chlorophenoxy)-5-ethyl-5-methyl-4-(4-methylsulfonyl)phenyl-5H-furan-2-one], in the assay with Male Sprague-Dawley rats (Table IV), it took a dose of 1.4 mg/kg to reach the 50% effect level (ED50). Besides, the figures for the IC50 on COX-2 [1] (setting [3]), at COX-2 [2] (setting [4]) and on CHO [hCOX-2] (setting [5]) were 0.05 µM, 2.2 µM and 0.008 µM, respectively.
On to `CC1(C)OC(=O)C(Oc2ccc(Cl)cc2)=C1c1ccc(S(C)(=O)=O)cc1` [Example 6, 3-(4-Chlorophenoxy)-5,5-dimethyl-4-(4-(methylsulfonyl)phenyl)-5H-furan-2-one], for which, in the assay with Male Sprague-Dawley rats (Table II), the ED50 was 7.65 mg/kg. On COX-2 [2], the IC50 stood at 2 µM.
The compound `CC1(C)OC(=O)C(OCC2CC2)=C1c1ccc(S(C)(=O)=O)cc1` [Example 148] returned an ED50 in the assay with Male Sprague-Dawley rats (Table IV) of 1.2 mg/kg. Moreover, at CHO [hCOX-2] (setting [5]), the half-maximal inhibitory concentration (IC50) turned out to be 0.01 µM.
In the assay with Male Sprague-Dawley rats (Table IV), `CC[C@@]1(C)OC(=O)C(Oc2ccc(Br)cc2)=C1c1ccc(S(C)(=O)=O)cc1` [Example 128, (5R)-3-(4-Bromophenoxy)-5-ethyl-5-methyl-4-(4-methylsulfonyl)phenyl-5H-furan-2-one] came in with an ED50 of 5 mg/kg. Also, the IC50 at COX-2 [1] (setting [3]) is under 0.41 µM; on COX-2 [2] (setting [4]), 1.7 µM; on CHO [hCOX-2] (read-out: COX-2(IC50, µM) CHO), 0.01 µM.
